Phytotoxicity index data for 25 compounds are collected here from patent US8318635B2, “Phytotoxicity controlling agent for upland farming and phytotoxicity controlling method using the same” (priority 2006, dated 2012).

Counter-ions that a name gives are not always drawn. Like-named read-outs stand apart in the source and are kept apart here.

For series [1], the system named is sweet corn (Delicious 100). Kind of series: Visual growth study, phytotoxicity index, chemicals scattered on the next day after sowing. To be noted: treated next day after sowing, 26 days after treatment, 0 = no growth inhibition, 100 = full dying, 4-(tert-butyl)benzoic acid 1000 g ai/ha in Examples, 0 in Comparative Examples, herbicide dose per label. The protocol:
(§1) A wettable powder containing 10% of 4-(tert-butyl)benzoic acid was prepared by blending pulverization of 10 parts of 4-(tert-butyl)benzoic acid, 2 parts of a sodium salt of naphthalenesulfonic acid-formalin condensation product, 2 parts of a polyoxyethylene alkyl ether, 30 parts of diatomaceous earth and 56 parts of clay by using a high-speed air-jet pulverizer.
(§2) These containers were each kept standing in a water vat and water supply for pooling was introduced through the hole opening at the bottom of the water vat.
(§3) For comparison, on the other hand, evaluation was made by conducting growth studies by growing sweet corn, wheat, dry-paddy rice, sorghum, soybean, adzuki bean and rapeseed under the same conditions as in the Examples excepting for the omission of scattering of 4-(tert-butyl)benzoic acid.

The test system of series [2] is wheat (Brigadier). To be noted: in vivo. The protocol:
as §1, §2, §3

The test system of series [3] is dry-paddy rice (Labell). Kind of series: Visual growth study, phytotoxicity index, chemicals scattered on the next day after sowing. It is filed as in vivo. Particulars: treated next day after sowing, 26 days after treatment, 0 = no growth inhibition, 100 = full dying, 4-(tert-butyl)benzoic acid 1000 g ai/ha in Examples, 0 in Comparative Examples, herbicide dose per label. As for the experimental part:
as §1, §2, §3

A further series deals with sorghum (Funk's Hybrid). Described as above. Particulars: treated next day after sowing, 11 days after treatment, 0 = no growth inhibition, 100 = full dying, 4-(tert-butyl)benzoic acid 1000 g ai/ha in Examples, 0 in Comparative Examples, herbicide dose per label. The protocol:
as §1, §2, §3

Series [4] concerns soybean (Fukuyutaka). The description is as above. The protocol: as §1, §2, §3
Series [5] has as its system sweet corn (Delicious 100). In words: Visual growth study, phytotoxicity index, chemicals scattered 14 days after sowing. The class given is in vivo. To be noted: 1.5 leaves stage, treated 14 days after sowing, 8 days after treatment, 0-100 scale, 4-(tert-butyl)benzoic acid 1000 g ai/ha in Examples, 0 in Comparative Examples, herbicide dose per label. As for the experimental part: (§4) These containers were each kept standing on a water vat filled with a water pool from which water was supplied through the opening in the bottom. […] After 8 days from the chemical treatment and after 14 days from the chemical treatment, visual growth studies were conducted for sweet corn, sorghum and adzuki bean and for wheat, barley, dry-paddy rice, soybean, rapeseed and beet, respectively and the results are shown in Table 2 and Table 3.

Series [6] deals with wheat (Brigadier). The series is described as above. The class given is in vivo. As for the experimental part:
as §4

For the next series, the system named is barley (Minori Rokujo). Described as above. To be noted: in vivo. As for the experimental part:
as §4

Series [7] concerns dry-paddy rice (Labell). The description is as above. The class given is in vivo. Particulars: 0.8 leaves stage, treated 14 days after sowing, 14 days after treatment, 0-100 scale, 4-(tert-butyl)benzoic acid 1000 g ai/ha in Examples, 0 in Comparative Examples, herbicide dose per label. As for the experimental part:
as §4

Series [8] deals with soybean (Fukuyutaka). The description is as above. Particulars: true leaf extraction stage, treated 14 days after sowing, 14 days after treatment, 0-100 scale, 4-(tert-butyl)benzoic acid 1000 g ai/ha in Examples, 0 in Comparative Examples, herbicide dose per label. It is filed as in vivo. As for the experimental part: as §4
For the next series, the system named is adzuki bean (Dainagon). The description is as above. It is filed as in vivo. The protocol:
as §4

In another series the test system is rapeseed. The series is described as above. The class given is in vivo. The protocol: as §4
A further series has as its system beet (VIGIL). The description is as above. The class given is in vivo. To be noted: true leaf extraction stage, treated 14 days after sowing, 14 days after treatment, 0-100 scale, 4-(tert-butyl)benzoic acid 1000 g ai/ha in Examples, 0 in Comparative Examples, herbicide dose per label. As for the experimental part: as §4
[9] abbreviates: wheat, 2 leaves stage, treated 14 days after sowing, 14 days after treatment, 0-100 scale, 4-(tert-butyl)benzoic acid 1000 g ai/ha in Examples, 0 in Comparative Examples, herbicide dose per label.

The compound `COC[C@H](C)N(C(=O)CCl)c1c(C)csc1C` [compound 2, Dimethenamide-P] displayed a Phytotoxicity index in series [1] of 33.

With `CCNc1nc(Cl)nc(NC(C)C)n1` [compound 3, Atrazine], in series [1], the Phytotoxicity index turned out to be 15.

Consider `Cc1ccn2nc(S(=O)(=O)Nc3c(F)cccc3F)nc2n1` [compound 4, Flumetsulam], for which the Phytotoxicity index in the series with wheat (Brigadier) [2] is listed as 13.

In the series with dry-paddy rice (Labell) [3], `CCNc1nc(Cl)nc(NC(C)C)n1` [compound 7, Atrazine] showed a Phytotoxicity index of 35.

The compound `CC(C)C1(C)N=C(c2nc3ccccc3cc2C(=O)O)NC1=O` (stereo not shown) [compound 8, Imazaquin ammonium salt] displayed a Phytotoxicity index with sorghum (Funk's Hybrid) of 45.

As to `COC[C@H](C)N(C(=O)CCl)c1c(C)csc1C` [compound 10, Dimethenamide-P], the Phytotoxicity index in the series with soybean (Fukuyutaka) [4] (soybean, treated next day after sowing, 26 days after treatment, 0 = no growth inhibition, 100 = full dying, 4-(tert-butyl)benzoic acid 1000 g ai/ha in Examples, 0 in Comparative Examples, herbicide dose per label) came to 20.

In the series on soybean (Fukuyutaka) [4] (in vivo), `Cn1nc(C(F)(F)F)c(CS(=O)(=O)C2=NOC(C)(C)C2)c1OC(F)F` [compound 11] yielded a Phytotoxicity index of 20.

Regarding `COc1cc(OC)nc(Oc2cccc(Oc3nc(OC)cc(OC)n3)c2C(=O)O)n1` [compound 14, Bispyribac-sodium], in [5], the Phytotoxicity index was found to be 45.

`COC[C@H](C)N(C(=O)CCl)c1c(C)csc1C` [compound 15, Dimethenamide-P]: the Phytotoxicity index in [5] came to 20.

In turn, `CS(=O)(=O)c1ccc(C(=O)C2C(=O)CCCC2=O)c([N+](=O)[O-])c1` [compound 16, Mesotrione] returned a Phytotoxicity index in series [5] of 13.

Take `O=C(Nc1ccc(F)cc1F)c1cccnc1Oc1cccc(C(F)(F)F)c1` [compound 17, Diflufenican]: in [5], the Phytotoxicity index worked out at 35.

The compound `CCOC(=O)[C@@H](C)Oc1ccc(Oc2nc3ccc(Cl)cc3o2)cc1` [compound 18, Fenoxaprop-P-ethyl] returned a Phytotoxicity index in the series with wheat (Brigadier) [6] (setting [9]) of 40.

In the series with wheat (Brigadier) [6] (setting [9]), `COc1cc(OC)nc(Oc2cccc(Oc3nc(OC)cc(OC)n3)c2C(=O)O)n1` [compound 19, Bispyribac-sodium] displayed a Phytotoxicity index of 35.

Compound `Cn1nc(C(F)(F)F)c(CS(=O)(=O)C2=NOC(C)(C)C2)c1OC(F)F` [compound 20] returned a Phytotoxicity index in the series on wheat (Brigadier) [6] (in vivo) of 20.

Turning to `CS(=O)(=O)c1ccc(C(=O)C2C(=O)CCCC2=O)c([N+](=O)[O-])c1` [compound 21, Mesotrione], the Phytotoxicity index with wheat (Brigadier) [6] (setting [9]) was determined as 40.

On to `O=C(Nc1ccc(F)cc1F)c1cccnc1Oc1cccc(C(F)(F)F)c1` [compound 22, Diflufenican], for which, in the series with wheat (Brigadier) [6] (setting [9]), the Phytotoxicity index came out at 15.

In the case of `Cn1nc(C(F)(F)F)c(CS(=O)(=O)C2=NOC(C)(C)C2)c1OC(F)F` [compound 23], the Phytotoxicity index with barley (Minori Rokujo) was 18.

In the series with dry-paddy rice (Labell) [7], `COc1cc(OC)nc(Oc2cccc(Oc3nc(OC)cc(OC)n3)c2C(=O)O)n1` [compound 24, Bispyribac-sodium] showed a Phytotoxicity index of 18.

Turning to `COC[C@H](C)N(C(=O)CCl)c1c(C)csc1C` [compound 25, Dimethenamide-P], the Phytotoxicity index in the series on soybean (Fukuyutaka) [8] was determined as 15.

With `O=C(Nc1ccc(F)cc1F)c1cccnc1Oc1cccc(C(F)(F)F)c1` [compound 26, Diflufenican], the Phytotoxicity index with soybean (Fukuyutaka) [8] was determined as 30.

For `Cn1nc(C(F)(F)F)c(CS(=O)(=O)C2=NOC(C)(C)C2)c1OC(F)F` [compound 27], in the series with adzuki bean (Dainagon) (in vivo), the Phytotoxicity index came out at 25.

`O=C(Nc1ccc(F)cc1F)c1cccnc1Oc1cccc(C(F)(F)F)c1` [compound 28, Diflufenican] gave a Phytotoxicity index in the series on adzuki bean (Dainagon) (adzuki bean, true leaf extraction stage, treated 14 days after sowing, 8 days after treatment, 0-100 scale, 4-(tert-butyl)benzoic acid 1000 g ai/ha in Examples, 0 in Comparative Examples, herbicide dose per label) of 35.

`COC[C@H](C)N(C(=O)CCl)c1c(C)csc1C` [compound 29, Dimethenamide-P] yielded a Phytotoxicity index with rapeseed (rapeseed, two paired leaves extraction stage, treated 14 days after sowing, 14 days after treatment, 0-100 scale, 4-(tert-butyl)benzoic acid 1000 g ai/ha in Examples, 0 in Comparative Examples, herbicide dose per label) of 10.

`Cn1nc(C(F)(F)F)c(CS(=O)(=O)C2=NOC(C)(C)C2)c1OC(F)F` [compound 30] yielded a Phytotoxicity index in the series with rapeseed (in vivo) of 40.

As to `COC[C@H](C)N(C(=O)CCl)c1c(C)csc1C` [compound 31, Dimethenamide-P], in the series with beet (VIGIL), the Phytotoxicity index is 35.
